Consider 23 compounds from PMC11374673, “Discovery of isoquinoline sulfonamides as allosteric gyrase inhibitors with activity against fluoroquinolone-resistant bacteria” (Nature Chemistry, 2024).

Assay [1] concerns K. pneumoniae ATCC 29665. Nature of the assay: MIC by broth microdilution. It counts as cell-based, Klebsiella pneumoniae. To be noted: read-out: MIC K. pneumoniae ATCC 29665. On the procedure: (§1) MIC was determined by broth microdilution. Single-colony cultures were grown to exponential phase (OD600 of 0.5) aerobically at 37 °C. In case of strains from the Keio collection, 50 µg ml^−1 kanamycin was supplemented to the media to ascertain a homogeneous population. The bacterial suspensions were diluted 100-fold in CAMHB and 50 µl was added to a twofold serial dilution series of test compounds (50 µl per well) in polypropylene 96-well microtitre plates to reach a volume of 100 µl. The plates were sealed with breathable membranes and incubated overnight at 37 °C with constant shaking (600 r.p.m.).

Assay [2] has as its system E. coli W3110. The experiment in a line: MIC by broth microdilution. The assay is classed as cell-based, Escherichia coli. To be noted: for MIC: broth microdilution, read-out: MIC E. coli W3110; for antimicrobial activity: relative to parent compound. On the procedure:
as §1

Where [3] appears, read: Klebsiella pneumoniae, ATCC29665, broth microdilution.

Molecules are shown by their SMILES. In brackets after ≈: the same amount, converted by molar mass. Read-outs that look alike come from different tables or passages of the source.

Take `Cc1ccccc1-c1ccc(CNCCNS(=O)(=O)c2cccc3cnccc23)cc1` [Compound 71]: the MIC (as a rule, the lowest concentration found to suppress growth) in assay [1] (setting [3]) is 50 µM (≈ 21.6 µg/mL); in assay [2] (Escherichia coli, W3110, WT), 12.5 µM (≈ 5.39 µg/mL).

With `N#Cc1ccccc1-c1ccc(CNCCNS(=O)(=O)c2cccc3cnccc23)cc1` [Compound 72], the MIC in assay [1] (setting [3]) was determined as 50 µM (≈ 22.1 µg/mL); in assay [2] (Escherichia coli, W3110, WT), 25 µM (≈ 11.1 µg/mL).

As for `COc1ccccc1-c1ccc(CNCCNS(=O)(=O)c2cccc3cnccc23)cc1` [Compound 73], the MIC worked out at 50 µM (≈ 22.4 µg/mL) in assay [1] (setting [3]) and 25 µM (≈ 11.2 µg/mL) in assay [2] (Escherichia coli, W3110, WT).

In the case of `O=S(=O)(NCCNCc1ccc(-c2ccc(Cl)c(Cl)c2)cc1)c1cccc2cnccc12` [Compound 74], the MIC in assay [1] (setting [3]) is > 50 µM; in assay [1] (broth microdilution), >50 µM; in assay [2] (Escherichia coli, W3110, WT), 25 µM (≈ 12.2 µg/mL).

Consider `O=S(=O)(NCCNCc1ccc(-c2cc(Cl)cc(Cl)c2)cc1)c1cccc2cnccc12` [Compound 75], for which the MIC was > 50 µM in assay [1] (setting [3]); >50 µM in assay [1] (broth microdilution); > 50 µM in assay [2] (Escherichia coli, W3110, WT); >50 µM in assay [2] (WT).

As to `O=S(=O)(NCCNCc1ccc(-c2ccc3ccccc3c2)cc1)c1cccc2cnccc12` [Compound 76], the MIC in assay [1] (setting [3]) was > 50 µM; in assay [1] (broth microdilution) it was >50 µM; in assay [2] (Escherichia coli, W3110, WT), > 50 µM; in assay [2] (WT), >50 µM.

Turning to `O=S(=O)(NCCNCc1ccc(-c2ccc3c(c2)OCO3)cc1)c1cccc2cnccc12` [Compound 77], the MIC in assay [1] (setting [3]) was > 50 µM; in assay [1] (broth microdilution), >50 µM; in assay [2] (Escherichia coli, W3110, WT), > 50 µM; in assay [2] (WT), >50 µM.

Turning to `O=S(=O)(NCCNCc1ccc(-c2ccc3c(c2)OCCO3)cc1)c1cccc2cnccc12` [Compound 78], the MIC was > 50 µM in assay [1] (setting [3]); >50 µM in assay [1] (broth microdilution); > 50 µM in assay [2] (Escherichia coli, W3110, WT); >50 µM in assay [2] (WT).

As to `O=S(=O)(NCCNCc1ccc(-c2cccnc2)nc1)c1cccc2cnccc12` [Compound 79], the MIC is > 50 µM in assay [1] (setting [3]); >50 µM in assay [1] (broth microdilution); > 50 µM in assay [2] (Escherichia coli, W3110, WT); >50 µM in assay [2] (WT).

As to `O=S(=O)(NCCNCc1ccc(-c2ccccc2)nc1)c1cccc2cnccc12` [Compound 80], the MIC is > 50 µM in assay [1] (setting [3]); >50 µM in assay [1] (broth microdilution); > 50 µM in assay [2] (Escherichia coli, W3110, WT); >50 µM in assay [2] (WT).

In the case of `O=S(=O)(NCCNCc1ccc(-c2ccc(F)nc2)nc1)c1cccc2cnccc12` [Compound 81], the MIC in assay [1] (setting [3]) was > 50 µM; in assay [1] (broth microdilution), >50 µM; in assay [2] (Escherichia coli, W3110, WT) it was > 50 µM; in assay [2] (WT) it was >50 µM.

`O=S(=O)(NCCNCc1ccc(-c2ccc(F)cc2)nc1)c1cccc2cnccc12` [Compound 82]: the MIC was > 50 µM in assay [1] (setting [3]); >50 µM in assay [1] (broth microdilution); > 50 µM in assay [2] (Escherichia coli, W3110, WT); >50 µM in assay [2] (WT).

On to `O=S(=O)(NCCNCc1ccc(-c2cccnc2)c(Cl)c1)c1cccc2cnccc12` [Compound 83], for which the MIC in assay [1] (setting [3]) was > 50 µM; in assay [1] (broth microdilution), >50 µM; in assay [2] (Escherichia coli, W3110, WT), > 50 µM; in assay [2] (WT), >50 µM.

Turning to `O=S(=O)(NCCNCc1ccc(-c2ccccc2)c(Cl)c1)c1cccc2cnccc12` [Compound 84], the minimal inhibitory concentration (MIC) is > 50 µM in assay [1] (setting [3]); >50 µM in assay [1] (broth microdilution); > 50 µM in assay [2] (Escherichia coli, W3110, WT); >50 µM in assay [2] (WT).

On to `O=S(=O)(NCCNCc1ccc(-c2ccc(F)nc2)c(Cl)c1)c1cccc2cnccc12` [Compound 85], for which the MIC in assay [1] (setting [3]) was > 50 µM; in assay [1] (broth microdilution) it was >50 µM; in assay [2] (Escherichia coli, W3110, WT), > 50 µM; in assay [2] (WT), >50 µM.

With `O=S(=O)(NCCNCc1ccc(-c2ccc(F)cc2)c(Cl)c1)c1cccc2cnccc12` [Compound 86], the MIC in assay [1] (setting [3]) was > 50 µM; in assay [1] (broth microdilution) it was >50 µM; in assay [2] (Escherichia coli, W3110, WT), 50 µM (≈ 23.5 µg/mL).

Turning to `O=S(=O)(NCCNCc1ccc(-c2cccnc2)c(F)c1)c1cccc2cnccc12` [Compound 87], the MIC in assay [1] (setting [3]) amounted to 50 µM (≈ 21.8 µg/mL); in assay [2] (Escherichia coli, W3110, WT), 25 µM (≈ 10.9 µg/mL).

On to `O=S(=O)(NCCNCc1ccc(-c2ccccc2)c(F)c1)c1cccc2cnccc12` [Compound 88], for which the MIC in assay [1] (setting [3]) is 25 µM (≈ 10.9 µg/mL); in assay [2] (Escherichia coli, W3110, WT) it was 12.5 µM (≈ 5.44 µg/mL).

With `O=S(=O)(NCCNCc1ccc(-c2ccc(F)cc2)c(F)c1)c1cccc2cnccc12` [Compound 90], the MIC stood at 12.5 µM (≈ 5.67 µg/mL) in assay [1] (setting [3]) and 12.5 µM (≈ 5.67 µg/mL) in assay [2] (Escherichia coli, W3110, WT).

On to `O=C(NCCNCc1ccc(-c2cccnc2)cc1)c1cccc2cnccc12` [Compound 91], for which the minimal inhibitory concentration (MIC) in assay [1] (setting [3]) was > 50 µM; in assay [1] (broth microdilution) it was >50 µM; in assay [2] (Escherichia coli, W3110, WT), > 50 µM; in assay [2] (WT), >50 µM. Moreover, the “antimicrobial activity” value in assay [2] was “loss of activity”.

Regarding `O=C(NCCNS(=O)(=O)c1cccc2cnccc12)c1ccc(-c2cccnc2)cc1` [Compound 93], the MIC in assay [1] (setting [3]) is > 50 µM; in assay [1] (broth microdilution), >50 µM; in assay [2] (Escherichia coli, W3110, WT) it was > 50 µM; in assay [2] (WT) it was >50 µM. Besides, in assay [2], the “antimicrobial activity” value is given as “abolished all activity”.

Turning to `O=S(=O)(NCCOCc1ccc(-c2cccnc2)cc1)c1cccc2cnccc12` [Compound 94], the minimum inhibitory concentration (MIC) in assay [1] (setting [3]) is > 50 µM; in assay [1] (broth microdilution) it was >50 µM; in assay [2] (Escherichia coli, W3110, WT), > 50 µM; in assay [2] (WT), >50 µM. Further, in assay [2], the “antimicrobial activity” value is on record as “abolished all activity”.

Turning to `CN(CCNS(=O)(=O)c1cccc2cnccc12)Cc1ccc(-c2cccnc2)cc1` [Compound 95], the MIC was 50 µM (≈ 21.6 µg/mL) in assay [1] (setting [3]); > 50 µM in assay [2] (Escherichia coli, W3110, WT); >50 µM in assay [2] (WT). For the same compound, in assay [2], the “antimicrobial activity” value is recorded as “abolished all activity”.
